Measurements from patent EP1028734B1, “USE OF SPECIFIC STEADY-STATE R-TYPE CALCIUM CHANNEL BLOCKERS” (priority 1997, dated 1999).

Key:
L-type Ca^2+ channel = test: whole-cell voltage clamp, L-type ICa of heart cells of chick embryos; type: cell-based
Method: Single cells of different types in culture were prepared from biopsies of human, chick and rabbit. Known and accepted methods for the isolation of fast Na^+ current, T, L and R-type Ca^2+ channels as well as delayed outward K^+ current were used (Bkaily 1994, supra).
The compounds to be tested are added to the appropriate extracellular solution after recording a stable ionic current or normal steady-state level of [Ca]n and [Ca]n The effect of different concentrations of compounds are tested on the different type of current and [Ca]i of the different cell types. The effect of each concentration of the compounds in function of the time of exposure are then determined. Once the steady-state effect is reached, the second concentration is added, etc.
In another series of experiments (n=5), the effect of different concentrations of MV8608 (10^-11 to 10^-6M) were tested on the L-type ICa of heart cells of chick embryos using the whole-cell and experimental conditions and protocols described elsewhere by the inventors (Bkaily G. et al., 1993, supra). As for the T-type ICa' the L-type ICa was not affected by 10^-11 to 10^-10M MV8608.
In another series of experiments (n=4), we tested the effect of MV8612 on the L-type Ca^2+ current (ICa) in chick embryonic heart cells using the whole-cell voltage clamp technique referred to above. Superfusion with 10^-9M of MV8612 decreased ICa amplitude by 10% and increasing the concentration of the compound up to 10^-8M further decreased the current amplitude by 25%. Higher concentration of MV8612 (10^-7M) decreased the ICa amplitude by 62%.

rat paw oedema = type: in vivo, rats
Method: In this experiment (N =5 to 6 animals per group), the anti-oedemagenic action of compounds MV 8608 and MV 8612 against bradykinin and several mediators which are reported to be involved in the inflammatory processes, was evaluated. The procedures used to perform these experiments have been reported elsewhere (Neves et al., 1993, Eur. J. Pharmacol. 243:213-219; Campos et al., 1995, Br. J. Pharmacol. 114:1005-1013; Campos et al., 1996, Br. J. Pharmacol. 117:793-798; Eur. J. Pharmacol. 316:227-286). […] As reported previously, in rats treated […] prior to a systemic injection of LPS, both B1 and B2 kinin selective agonists caused marked oedema formation (Figures 37C and D (Campos et al., 1996, supra)).

human lymphocyte = human lymphocyte proliferation in vitro; type: cell-based; conditions: MV 8612, MV 8608 14.5 to 116 M
Method: In a separate series of experiments, compounds MV 8612 and MV 8608 were tested to analyze whether they interfered with human lymphocyte proliferation "in vitro". These experiments were carried out as reported previously (Moraes et al., 1996, Eur. J. Pharmacol. 312:333-339).

R-type Ca^2+ channel [1] = test: Fura-2 total [Ca]i measurement, sustained increase of [Ca]i via stimulation of R-type Ca2+ channels; type: cell-based, chick, human, rabbit
Description: This sustained increase of Ca^2+ induced by depolarization of the cell membrane or hormones such as PAF, ET-1 and bradykinin is due to the increase of Ca^2+ influx through the R-type Ca^2+ channels at the sarcolemmal membrane and/or the nuclear membrane (Bkaily G., 1994, supra; 1996, supra; 1997a-d, supra). Using Ca^2+ fluorescence probes Fura-2 or Fluo-3 and 2 and three-dimension Ca^2+ imaging techniques (Bkaily G., 1994, supra; 1996, supra; 1997a-d, supra), the effect of hormones and drugs could be easily tested. These two methods are used with single cells of different types as described above. […]
Using Fura-2 [Ca]i measurement technique, in one series of experiments we tested the effect of MV8612 (10^-9M) on the stimulation of R-type Ca^2+-induced sustained increase of [Ca]i by sustained depolarization (Figures 26 and 27), PAF (10^-9M, Figure 34) and ET-1 (Figures 33 and 34).

R-type Ca^2+ channel [2] = test: cell attached single channel patch clamp, R-type Ca2+ channel in human aortic vascular smooth muscle cell line; type: cell-based
Method: Also, for the R-type Ca^2+ channel current, the effect of the compounds are tested on the R-type Ca^2+ channel amplitude, voltage dependency and probability of opening, by using the cell-attached patch clamp technique (Bkaily 1994, supra; 1996, supra) and intra and extra patch pipette application of the drug.
In another series of experiments (n=7), using the cell attached patch clamp technique (Bkaily G. 1994, supra; Bkaily G. et al., 1996, supra), the effect of 10^-7M of MV8608 on the R-type Ca^2+ channel in human aortic vascular smooth muscle cell line was tested. […] In a second series of experiments (n=3), the patch pipette solution was free of MV8608 and after recording the single channel activities at different voltages, MV8608 (final concentration of 10^-7M) was applied to the extra-patch pipette solution containing 140mM KCI (where the rest of the cell is bathing). This experiment was designed to verify whether MV8608 crossed the cell membrane and if so, whether its effect from the internal side of the channel under the patch is the same as that when applied at the outer side thereof. […] Such a pattern of increase of probability of opening and the open duration accompanied with the sporadic decrease of the single channel current amplitude has never been observed when MV8608 was applied at the outer side of the single channel under the patch pipette.
In another series of experiments (n=7), the effect of 10^-7M of MV8612 was tested on the R-type Ca^2+ in human aortic VSM cells, using the single channel cell attached recording technique and intra and extra patch pipette application of drugs.
In one series of experiments (n=3), MV8612 (total concentration, 10^-7M) was only applied to the patch pipette. […] As for MV8608, in one series of experiments (n=4), MV8612 (10^-7M) was only applied to the extra-patch pipette, in order to verify if the compound penetrates into the cytosol and if so, how it affects the R-type Ca^2+ channel activity.

[3] = 100 nmol/paw, rats treated 30 days prior (text LPS, Figure 37 BCG)
[4] = 10 and 100 nmol/paw co-injected
[5] = 10 and 100 nmol/paw, dose-dependant

(15R, 16R, 20S)-14, 16:15,20:16,21-triepoxi-15,16-seco 14β, 17α-pregn-5-ene-3β, 15-diol [MV8608]
ICa amplitude (L-type), further change (L-type Ca^2+ channel; 5 x 10^-7M): a further slight increase
decrease of ICa amplitude (L-type) (L-type Ca^2+ channel; 10^-9M): 10%
L-type ICa (L-type Ca^2+ channel; 10^-11 to 10^-10M): not affected
oedema induced by prostaglandin E2 (PGE2) (rat paw oedema; 100 nmol/paw): partially inhibited
oedema induced by substance P (rat paw oedema; 100 nmol/paw): unaffected
paw oedema induced by PAF (rat paw oedema; 100 nmol/paw): consistently inhibited
bradykinin-induced rat paw oedema (rat paw oedema; [3]): significantly inhibited
des-Arg^9-BK-induced rat paw oedema (rat paw oedema; [3]): significantly inhibited
carrageenan-induced paw oedema (rat paw oedema; 10 and 100 nmol/paw): significantly prevented
dextran-induced paw oedema (rat paw oedema; [4]): significantly prevented
histamine-induced paw oedema (rat paw oedema; [4]): significantly prevented
serotonin-induced paw oedema (rat paw oedema; [4]): significantly prevented
paw oedema induced by des-Arg^9-bradykinin (rat paw oedema; 10 and 100 nmol/paw co-injected, animals treated with LPS): dose-related inhibition
oedema formation induced by subplantar injection of ovalbumin (rat paw oedema; 10 and 100 nmol/paw, animals actively sensitised): inhibited significantly
bradykinin-induced hindpaw oedema (rat paw oedema; 10 and 100 nmol/paw, animals treated with LPS): no significant effect
potentiation of paw oedema by low dose of des-Arg^9-BK plus PAF (rat paw oedema; [5]): prevented the potentiation
potentiation of paw oedema by low dose of des-Arg^9-BK with PGE2 (rat paw oedema; [5]): prevented the potentiation
human lymphocyte proliferation (human lymphocyte): graded inhibition
sustained increase of [Ca]i induced by 10^-7M PAF (R-type Ca^2+ channel [1]; 10^-6M of compound, human aortic VSM cell line (Figure 23)): able to block
sustained increase of [Ca]i induced by 10^-7M PAF (R-type Ca^2+ channel [1]; 10^-9M of compound): failed to significantly decrease
sustained increase of [Ca]i induced by sustained depolarization, ET-1 (10^-9M), PAF (10^-9M) or BK (10^-6M) (R-type Ca^2+ channel [1]; 10^-9M of compound): completely blocked
time within which the block occurred (R-type Ca^2+ channel [1]; 10^-9M of compound): 4 to 5 min
basal sustained increase of [Ca]i (R-type Ca^2+ channel [1]; 10^-9M, freshly isolated human aortic endothelial cells, Figure 22): decrease
blockade of the R-type Ca^2+ channel across cell types (R-type Ca^2+ channel [1]; incl. MG63, FAOS-2, atherosclerotic human VSM cells, endothelial cells, T-lymphocytes, platelets (not shown), AOSMC-9): blocked the R-type Ca^2+ channel in all cell types used
single channel conductance of R-type Ca^2+ channel (R-type Ca^2+ channel [2]; 10^-7M applied in the patch pipette): without affecting
single channel amplitude and probability of opening of the single R-type Ca^2+ channel (R-type Ca^2+ channel [2]; 10^-7M applied in the patch pipette, 10^-6M nifedipine present): decreased the single channel amplitude and probability of opening
single channel current amplitude (R-type Ca^2+ channel [2]; 10^-7M applied to the extra-patch pipette solution): spontaneous decrease and release of the blockade
opening of the R-type channel (probability, duration, frequency) (R-type Ca^2+ channel [2]; 10^-7M applied to the extra-patch pipette solution (140mM KCl)): increased the probability and duration of opening
